Test results taken from patent US7939556B2, “Imidazole derivatives and their use for modulating the GABAA receptor complex” (Neurosearch A/S, priority 2005, dated 2011).

Each compound was assayed against benzodiazepine modulatory unit of the GABAA receptor complex (assay: In vitro inhibition of 3H-flunitrazepam (3H-FNM) binding). Conditions: inhibition of specific binding of 3H-FNM (1 nM), rat cerebral cortex membranes, 40 min at 2° C.
Protocol: In Vitro Inhibition of ^3H-Flunitrazepam (^3H—FNM) Binding
The GABA recognition site and the benzodiazepine modulatory unit can selectively be labelled with ^3H-flunitrazepam.
Preparations are performed at 0-4° C. unless otherwise indicated. Cerebral cortex from male Wistar rats (150-200 g) is homogenised for 5-10 sec in 20 ml Tris-HCl (30 mM, pH 7.4) using an Ultra-Turrax homogeniser. The suspension is centrifuged at 27,000×g for 15 min and the pellet is washed three times with buffer (centrifuged at 27,000×g for 10 min). The washed pellet is homogenized in 20 ml of buffer and incubated on a water bath (37° C.) for 30 min to remove endogenous GABA and then centrifuged for 10 min at 27,000×g. The pellet is then homogenized in buffer and centrifuged for 10 min at 27,000×g. The final pellet is resuspended in 30 ml buffer and the preparation is frozen and stored at −20° C.
The membrane preparation is thawed and centrifuged at 2° C. for 10 min at 27,000×g. The pellet is washed twice with 20 ml 50 mM Tris-citrate, pH 7.1 using an Ultra-Turrax homogeniser and centrifuged for 10 min at 27,000×g. The final pellet is resuspended in 50 mM Tris-citrate, pH 7.1 (500 ml buffer per g of original tissue), and then used for binding assays. Aliquots of 0.5 ml tissue are added to 25 μl of test solution and 25 μl of ^3H—FNM (1 nM, final concentration), mixed and incubated for 40 min at 2° C. Non-specific binding is determined using Clonazepam (1 μM, final concentration). After incubation the samples are added 5 ml of ice-cold buffer and poured directly onto Whatman GF/C glass fibre filters under suction and immediately washed with 5 ml ice-cold buffer. The amount of radioactivity on the filters is determined by conventional liquid scintillation counting. Specific binding is total binding minus non-specific binding.
25-75% inhibition of specific binding must be obtained, before calculation of an IC50.
The test value will be given as IC50 (the concentration (μM) of the test substance which inhibits the specific binding of ^3H—FNM by 50%).
Co is specific binding in control assays, and […]

IC50	Structure (SMILES)
24 nM	CCOC(=O)c1cn(-c2cccc(COCc3ccccn3)c2)cn1 [Compound 11a, 1-[3-(Pyridin-2-ylmethoxymethyl)-phenyl]-1H-imidazole-4-carboxylic acid ethyl ester]
24 nM	CCOC(=O)c1cn(-c2cccc(Br)c2)cn1 [Compound 16, 1-(3-Bromo-phenyl)-1H-imidazole-4-carboxylic acid ethyl ester]
180 nM	COC(=O)c1cn(-c2cccc([N+](=O)[O-])c2)cn1 [Compound 20, 1-(3-Nitro-phenyl)-1H-imidazole-4-carboxylic acid methyl ester]
